Assay results as given in PubChem BioAssay AID1963847 (Molecular Pharmacology Branch, DTP, NCI, 2024).

System: 415267-285-R-J2-PDC complex spheroid viability
Assay: Anticancer human tumor 415267-285-R-J2-PDC patient-derived breast carcinoma cell line growth inhibition [POLQ]
Settings: for IC50: curve of first compound; for viability, T/C: stronger effect = lower value; active = viability on the fitted dose curve at most 10% of control; inactive = the rest
Experimental: Multicellular complex tumor spheroid response to Polymerase (POL) inhibitors (novobiocin, ART-558, RP6685) in combination with a variety of drugs and investigational agents in selected tumor cell lines
The POL inhibitors (novobiocin, ART-558, and RP6685) were evaluated both individually and in combination with standard of care and investigational anticancer small molecules within a complex spheroid model of solid tumors. . Complex spheroids include a stromal component modeled by human endothelial cells (HUVEC) and fibroblasts modeled by human mesenchymal stem cells (MSCs). The concentration ranges selected for each drug and investigational agent were based upon clinically achievable concentrations if the clinical Cmax of the agent was known.
Compounds. The drugs and investigational agents: novobiocin (NSC847541), ART-558 (NSC835418), RP-6685 (NSC848927), peposertib (NSC802822), ceralasertib (NSC780249), elimusertib (NSC800525), camonsertib (NSC841442), AZD-1390 (NSC803789), olaparib (NSC753686), talazoparib (NSC767125), rucaparib (NSC756644), sotorasib (NSC818433), MRTX-1133 (NSC836407), SN-38 (NSC673596), topotecan (NSC609699), epotoside (NSC141540), doxorubicin (NSC123127), gemcitabine (NSC613327), 5-fluorouracil (NSC19893), paclitaxel (NSC125973), vemurafenib (NSC761431), MSA-2 (NSC828583), SN-011 (NSC837082), adavosertib (NSC754352), prexasertib (NSC758257), carboplatin (NSC241240) and oxaliplatin (NSC266046), were obtained from the National Cancer Institute (NCI) Developmental Therapeutics Program Chemical Repository (21). The FDA-approved anticancer drug set is available from the Developmental Therapeutics Program at https://dtp.cancer.gov/organization/dscb/obtaining/. […] The stock solutions were prepared in dimethyl sulfoxide (DMSO, Sigma-Aldrich, St. Louis, MO, cat. D2650), except for the platinum compounds which were prepared in saline (Quality Biological, Gaithersburg, MD, cat. 114-055-101), at 800-fold the tested concentration and stored at -70 degrees C prior to their use. All drugs and investigational agents were tested over a range starting from a high concentration at or near the clinical Cmax and decreasing in half-log increments. If the clinical Cmax for an agent had not been determined, the highest concentration tested was 10 microM, except for SN-38, which was tested at a high concentration of 1 microM.
Cell Culture. All cells were maintained in an incubator at 37 degrees C and 5% CO2 with 95% humidity. The PDC lines were cultured according to standard operating procedures established by the NCI PDMR (https://pdmr.cancer.gov). Table 3 of the manuscript, lists the cell lines along with the number of the three cell types plated to form the mct-spheroids and media for tumor cell growth. After thawing, all PDC lines, except 997537-175-T-J1-PDC and 415267-285-R-J2-PDC, were cultured in Matrigel-coated flasks prepared with a working solution of 1X Ham's F-12 nutrient mix, without supplementation (Thermo Fisher Scientific, cat. 11765054), 100 U/mL penicillin-streptomycin (Thermo Fisher Scientific, cat. 15140122), and 2.5% Matrigel (Corning Inc., Corning, NY, cat. 354248) for the first three passages. The two PDC lines 997537-175-T-J1-PDC and 415267-285-R-J2-PDC were cultured on uncoated flasks. The 857933-349-R-J2-PDC line was cultured in 6C/Colon 1B media containing advanced DMEM/F-12 (Thermo Fisher Scientific, cat. 12634028), 10 mM HEPES (Thermo Fisher Scientific, cat. 15630080), 1X GlutaMAX supplement (Thermo Fisher Scientific, cat. 35050061), 0.1 mg/mL primocin (InvivoGen, San Diego, CA, cat. ant-pm-2), 10% defined fetal bovine serum, heat inactivated (HyClone Laboratories Inc., Logan, UT, cat. SH30070.03HI), 50% L-WRN conditioned media (ATCC, cat. CRL-3276), 1.25 mM N-Acetyl-L-cysteine (Sigma-Aldrich, cat. A9165), 10 mM nicotinamide (Sigma-Aldrich, cat. N0636), 1X B-27 supplement (Thermo Fisher Scientific, cat. 17504044), 1X N-2 supplement (Thermo Fisher Scientific, cat. […]
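Also: spheroids exposed to compounds for one week before readout.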
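For viability, T/C in this document: luminescence used as stand-in measure of viable cells.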

CCc1cc2c(N3CCc4c(cc(Cn5ccnc5)cc4-c4cn(C)nc4C(F)(F)F)C3=O)cc(C)nc2c(OC)n1 + Nc1ccc(C#CCN(C(=O)Cc2ncc(C(F)(F)F)cc2C(F)(F)F)c2ccc(F)cc2)nn1
inactive: viability, T/C (second compound 0.0316 µM, first compound 0.0316 µM) 91.4% | viability, T/C (second compound 0.0316 µM, first compound 0.1 µM) 91.6% | viability, T/C (second compound 0.0316 µM, first compound 0.316 µM) 88.7% | viability, T/C (second compound 0.0316 µM, first compound 1 µM) 85.9% | viability, T/C (second compound 0.0316 µM, first compound 3.16 µM) 82.5% | viability, T/C (second compound 0.0316 µM, first compound 10 µM) 66.7% | viability, T/C (second compound 0.1 µM, first compound 0.0316 µM) 99.5% | viability, T/C (second compound 0.1 µM, first compound 0.1 µM) 87.1% | viability, T/C (second compound 0.1 µM, first compound 0.316 µM) 80.8% | viability, T/C (second compound 0.1 µM, first compound 1 µM) 94.8% | viability, T/C (second compound 0.1 µM, first compound 3.16 µM) 88.1% | viability, T/C (second compound 0.1 µM, first compound 10 µM) 66.8% | viability, T/C (second compound 0.316 µM, first compound 0.0316 µM) 91.7% | viability, T/C (second compound 0.316 µM, first compound 0.1 µM) 88.8% | viability, T/C (second compound 0.316 µM, first compound 0.316 µM) 98.4% | viability, T/C (second compound 0.316 µM, first compound 1 µM) 93.2% | viability, T/C (second compound 0.316 µM, first compound 3.16 µM) 80% | viability, T/C (second compound 0.316 µM, first compound 10 µM) 68.1% | viability, T/C (second compound 1 µM, first compound 0.0316 µM) 86% | viability, T/C (second compound 1 µM, first compound 0.1 µM) 94.7% | viability, T/C (second compound 1 µM, first compound 0.316 µM) 101% | viability, T/C (second compound 1 µM, first compound 1 µM) 94.9% | viability, T/C (second compound 1 µM, first compound 3.16 µM) 84% | viability, T/C (second compound 1 µM, first compound 10 µM) 64.1% | viability, T/C (second compound 3.16 µM, first compound 0.0316 µM) 97.6% | viability, T/C (second compound 3.16 µM, first compound 0.1 µM) 87.9% | viability, T/C (second compound 3.16 µM, first compound 0.316 µM) 86.5% | viability, T/C (second compound 3.16 µM, first compound 1 µM) 104% | viability, T/C (second compound 3.16 µM, first compound 3.16 µM) 86.6% | viability, T/C (second compound 3.16 µM, first compound 10 µM) 70.8% | viability, T/C (second compound 10 µM, first compound 0.0316 µM) 98.9% | viability, T/C (second compound 10 µM, first compound 0.1 µM) 79.9% | viability, T/C (second compound 10 µM, first compound 0.316 µM) 97.4% | viability, T/C (second compound 10 µM, first compound 1 µM) 82.2% | viability, T/C (second compound 10 µM, first compound 3.16 µM) 79.1% | viability, T/C (second compound 10 µM, first compound 10 µM) 65.1%
> 10 µM: IC50 (second compound 0.0316 µM) | IC50 (second compound 0.1 µM) | IC50 (second compound 0.316 µM) | IC50 (second compound 1 µM) | IC50 (second compound 3.16 µM) | IC50 (second compound 10 µM)
